Assay results reported in publication PMC12270663, “Cagrilintide lowers bodyweight through brain amylin receptors 1 and 3” (eBioMedicine, 2025).

Experiments:
[1] = test system: WT and RAMP1/3 KO high fat diet fed mice; experiment: Study 3: 3-week treatment, food intake and body weight; type: in vivo, mouse
Protocol: Male mice were housed in a controlled environment maintained at 21 ± 2 °C, under a 12/12 h light–dark cycle (lights off at 11.00 h). Mice had ad libitum access to standard chow (3.14 kcal/g of food; Kliba, Switzerland, cat# 3436) and water, until 3–4 weeks old. Twenty-four WT and twenty-four RAMP 1/3 KO male mice were fed a 60% fat HFD (5.24 kcal/g of food; SSNIFF Spezialdiäten GmbH, Germany, cat# EF D12452) provided ad libitum for 18 weeks. Then mice were fed to a 45% fat HFD (4.73 kcal/g of food; SSNIFF Spezialdiäten GmbH, Germany, cat# EF D12451) provided ad libitum for 6 weeks until the end of the study. The mice were group housed (3–4 mice per cage) until 1 week before the 21-day treatment period. Each cage was equipped with a red plastic house, tissue paper, nest-building material and wood shavings. Prior to the 21-day treatment, mice were injected with vehicle for three days to acclimate to the daily subcutaneous injections and reduce stress associated with the injections.
(§1) Mice were s.c. injected once a day for 3 weeks 1 h before dark onset between 9.00 and 10.00 h. Prior to injection, daily body weight and food intake were measured manually. On the day of sacrifice, mice were anesthetised with pentobarbital (100 mg/kg, i.p., Cantonal Pharmacy of Zurich, Switzerland) 24 h after receiving the last dose of peptide.

[2] = test system: WT and RAMP1/3 KO high fat diet fed mice; experiment: Study 3: body composition by EchoMRI; type: in vivo, mouse; details: 150 nmol/kg/d s.c., 3 weeks
Protocol: as §1
Brains were harvested, snap frozen on dry ice and kept at −80 °C until mRNA extraction for next-generation sequencing (NGS) analysis. Blood samples were collected from the right ventricle of the heart during the sacrifice in 1 mL EDTA-coated tubes containing dipeptidyl peptidase-4 inhibitor (10 μL/mL blood; Sigma Aldrich, Switzerland, cat# DPP4-010) and protease inhibitor (30 μL/mL blood; Sigma Aldrich, Switzerland, cat# P2714). After centrifugation, plasma was kept at −80 °C. The mice were stored at −20 °C until body composition analysis was performed.
Lean and fat mass were measured post-mortem using EchoMRI (EchoMRI LLC, USA) at the Zurich Integrative Rodent Physiology (University of Zurich). Calibrations and measurements were performed according to manufacturer's instructions. Two measurements were performed and averaged per mouse. Fat mass and lean mass values are expressed as percent of body weight.

[3] = test system: area postrema (AP) neurons of WT and RAMP1/3 KO mice; experiment: Study 4 cohort 1: cFos positive neurons, AP; type: in vivo, mouse; details: second statistical test, Figure 4b
Protocol: Mice were group housed in a controlled environment maintained at 21 ± 2 °C, under a 12/12 h light–dark cycle (lights off at 11.00 h). In the first cohort, 25 male WT and 25 male RAMP1/3 KO mice aged between 12 and 20 week-old were fed chow diet and maintained under group housing condition. In the second cohort, 18 male WT, 18 male RAMP1 KO, 18 male RAMP3 KO and 18 male RAMP1/3 KO mice aged between 10 and 15 week-old were fed chow diet and maintained under group housing condition.
For both cohorts, animals were deeply anesthetised 90 min later (pentobarbital 100 mg/kg, i.p) and transcardially perfused with cold 0.1 M of phosphate buffer (PB) for 1.5 min followed by 4% of paraformaldehyde (PFA) in PB for 2.5 min. Brains were removed and postfixed overnight in 4% of PFA and cryoprotected in 20% of sucrose-PB for 24 h. Brains were frozen in hexane on dry ice and stored at −80 °C until sectioning. Stereological brain sampling of the areas of interest was performed and brain were serially cut on a cryostat (Leica Biosystems, Germany, cat# CM3050S), mounted on Superfrost Plus slides (Thermo Fisher Scientific, Reinach, Switzerland), and cryoprotected in 50% of PB, 30% of ethylene glycol, 20% of glycerol, and subsequently stored at −20 °C.
Blocking of the mouse brain sections was performed with 0.4% Triton–4% normal goat serum in PBS for 2 h at room temperature. AP/NTS and LPBN sections were incubated at 4 °C for 48 h with rabbit anti-Fos antibody (1:500, Cell signalling technology, Switzerland, Cat# 2250, RRID: AB_2247211), and then after PBS washes, incubated with goat anti-rabbit Alexa Fluor CY3 (1:200, LuBio Science GmbH, Switzerland for Jackson Immunoresearch, Cat# 111-165-144) or alexa fluor 488 for 2 h at room temperature. After thorough washing in PBS, the sections were counterstained with DAPI, mounted immediately and coverslipped with Vectashield antifade Mounting Medium (Vectorlabs, Burlingame, USA, cat# H-1400).[40]
Photomicrographs of all sections containing AP, NTS and LPBN were taken at 20× magnification using Zeiss Axio Scan.Z1 slidescanner (Center for Microscopy and Image Analysis UZH, Zeiss, Germany). All images for each study were acquired using the same exposure time. Scanned images were imported into QuPath (QuPath 0.5.0) for quantification. Three to four sections were counted and averaged per area of interest. A polygon tool was used manually to determine the boundary of the region of interest of the brain section. A cell detection tool was used to detect every cell in the section by using a built-in cell segmentation algorithm. The cell detection tool was used on the DAPI channel to make sure that only a cell was recognised and not the background or artefact by system. A detection classifier was created by using the create detection classifier function. The numbers of positive counted DAPI cells containing a cFos signal were automatically counted within the region. The experimental group was blinded to the experimenter during the analysis.

AMYRs and CTR = details: cited from earlier work
Source text: In a cellular assay, cagrilintide was confirmed to be a non-selective agonist of the CTR and AMYRs across multiple assays of proximal ...

Molecule | acute anorectic effect on day 1 ([1]; RAMP1/3 KO mice, cagrilintide 3, sCT 150 nmol/kg s.c.) | weight gain on subchronic treatment ([1]; WT mice, 150 nmol/kg/d s.c.) | Food intake on Day 1 ([1]; WT mice, cagrilintide 3, sCT 150 nmol/kg s.c., mean ± SEM, n = 7–8/group) [g] | reduction of relative lean mass in KO mice compared to WT [2] [%] | effect on body composition ([2]; WT mice) | Predicted (LS) mean diff., AP cFos after square root transformation ([3]; RAMP 1/3 KO, Vehicle vs. sCT (3 nmol/kg), Tukey) | Predicted (LS) mean diff., AP cFos after square root transformation ([3]; RAMP 1/3 KO, Vehicle vs. sCT (150 nmol/kg), Tukey) | Predicted (LS) mean diff., AP cFos after square root transformation ([3]; RAMP 1/3 KO, sCT (3 nmol/kg) vs. Cagrilintide (3 nmol/kg), Tukey) | Predicted (LS) mean diff., AP cFos after square root transformation ([3]; RAMP 1/3 KO, sCT (3 nmol/kg) vs. sCT (150 nmol/kg), Tukey) | Predicted (LS) mean diff., AP cFos after square root transformation ([3]; RAMP 1/3 KO, sCT (150 nmol/kg) vs. Cagrilintide (3 nmol/kg), Tukey) | Predicted (LS) mean diff., AP cFos after square root transformation ([3]; WT, Vehicle vs. sCT (3 nmol/kg), Tukey) | Predicted (LS) mean diff., AP cFos after square root transformation ([3]; WT, Vehicle vs. sCT (150 nmol/kg), Tukey) | Predicted (LS) mean diff., AP cFos after square root transformation ([3]; WT, sCT (3 nmol/kg) vs. Cagrilintide (3 nmol/kg), Tukey) | Predicted (LS) mean diff., AP cFos after square root transformation ([3]; WT, sCT (3 nmol/kg) vs. sCT (150 nmol/kg), Tukey) | Predicted (LS) mean diff., AP cFos after square root transformation ([3]; WT, sCT (150 nmol/kg) vs. Cagrilintide (3 nmol/kg), Tukey) | Predicted (LS) mean diff., AP cFos after square root transformation ([3]; sCT (3 nmol/kg), WT vs. RAMP 1/3 KO) | Predicted (LS) mean diff., AP cFos after square root transformation ([3]; sCT (150 nmol/kg), WT vs. RAMP 1/3 KO) | residence time (dissociation) (AMYRs and CTR; comparable for all AMYRs / all receptors) [min] | binding to AMYRs (AMYRs and CTR)
CC(C)C[C@H](NC(=O)[C@H](CCCCN)NC(=O)CNC(=O)[C@H](CC(C)C)NC(=O)[C@@H](NC(=O)[C@@H]1CSSC[C@H](N)C(=O)N[C@@H](CO)C(=O)N[C@@H](CC(N)=O)C(=O)N[C@@H](CC(C)C)C(=O)N[C@@H](CO)C(=O)N[C@@H]([C@@H](C)O)C(=O)N1)C(C)C)C(=O)N[C@@H](CO)C(=O)N[C@@H](CCC(N)=O)C(=O)N[C@@H](CCC(=O)O)C(=O)N[C@@H](CC(C)C)C(=O)N[C@@H](Cc1c[nH]cn1)C(=O)N[C@@H](CCCCN)C(=O)N[C@@H](CC(C)C)C(=O)N[C@@H](CCC(N)=O)C(=O)N[C@H](C(=O)N[C@@H](Cc1ccc(O)cc1)C(=O)N1CCC[C@H]1C(=O)N[C@@H](CCCNC(=N)N)C(=O)N[C@H](C(=O)N[C@@H](CC(N)=O)C(=O)N[C@H](C(=O)NCC(=O)N[C@@H](CO)C(=O)NCC(=O)N[C@H](C(=O)N1CCC[C@H]1C(N)=O)[C@@H](C)O)[C@@H](C)O)[C@@H](C)O)[C@@H](C)O [sCT, salmon calcitonin] | no effect | approx. 2 g | 1.5 ± 0.2 | 15 | no effect | -8.457 | -9.262 | 4.579 | -0.8046 | 5.384 | -8.131 | -7.632 | 1.906 | 0.4986 | 1.408 | -0.1355 | -1.439 | 45 to 60 | –
Davalintide | – | – | – | – | – | – | – | – | – | – | – | – | – | – | – | – | – | – | binds irreversibly
